# Reference: PMC3894848 (Journal of medicinal chemistry, 2013)
# Experiments:
# BRD4 BrD1 = BRD4 BrD1 (Homo sapiens, UniProt O60885); assay: Fluorescence anisotropy competition binding assay; settings: for Lipophilic Ligand Efficiency: against BRD4-BrD1, LLE = pKi – ClogP; for binding activity toward BRD4 BrD1 (in words): fluorescence anisotropy/polarization assay
# BRD4 BrD2 = BRD4 BrD2 (Homo sapiens, UniProt O60885); assay: Fluorescence anisotropy competition binding assay, BRD4 BrD2
smiles,measurement,setting,value
"Cc1cc(/N=N/c2ccc(S(=O)(=O)Nc3ccccn3)cc2)c(N)c(C)c1O [Compound 28, (E)-4-((2-amino-4-hydroxy-3,5-dimethylphenyl)diazenyl)N-(pyridin-2-yl)benzenesulfon-amide]",Lipophilic Ligand Efficiency,BRD4 BrD1,2.77
same,reduction in binding affinity to the BRD4 BrD1 vs MS436,BRD4 BrD1,about 2 fold
"COc1c(C)cc(/N=N/c2ccc(S(=O)(=O)Nc3ccccn3)cc2)cc1C [Compound 37, (E)-4-((4-methoxy-3,5-dimethylphenyl)diazenyl)-N-(pyridin-2-yl)benzenesulfonamide]",binding activity toward BRD4 BrD1 (in words),BRD4 BrD1,completely lost binding activity
"Cc1cc(C)c(S(=O)(=O)O)cc1/N=N/c1cc(C)c(O)c(C)c1 [Compound 2, (E)-5-(3,5-dimethyl-4-hydroxyphenylazo)-2,4-dimethylbenzenesulfonic acid]",improvement in binding affinity to the BRD4 BrDs over MS120 (1),"BRD4 BrD1; vs MS120 (1), both BRD4 BrDs",2–3 fold
"CC(C)(C)c1cc(/N=N/c2ccc(S(=O)(=O)Nc3ccccn3)cc2)cc(C(C)(C)C)c1O [Compound 42, (E)-4-((3,5-di-tert-butyl-4-hydroxyphenyl)diazenyl)-N-(pyridin-2-yl)benzenesulfonamide]",binding activity toward BRD4 BrD1 (in words),BRD4 BrD1,almost completely lost their activities
"Cc1cc(/N=N/c2cc(S(=O)(=O)O)c(C)cc2C)c(N)cc1O [Compound 1, (E)-5-((2-amino-4-hydroxy-5-methylphenyl)diazenyl)-2,4-dimethylbenzenesulfonic acid]",binding activity toward BRD4 BrD1 (in words),BRD4 BrD1,modest activity
"CC(C)(C)c1cc(/N=N/c2ccc(S(=O)(=O)Nc3ccccn3)cc2)ccc1O [Compound 40, (E)-4-((3-(tert-butyl)-4-hydroxyphenyl)diazenyl)-N-(pyridin-2-yl)benzenesulfonamide]",loss in activity/affinity toward BRD4 BrD1 vs MS435,BRD4 BrD1; vs MS435,about 10 fold
"COc1ccc(NS(=O)(=O)c2ccc(/N=N/c3cc(C)c(O)c(C)c3)cc2)nc1 [Compound 12, (E)-4-((4-hydroxy-3,5-dimethylphenyl)diazenyl)-N-(5-methoxypyridin-2-yl)benzenesulfon-amide]",improvement in binding affinity to the BRD4 BrD1 by nitrogen in the C ring,BRD4 BrD1; 12 vs. 13,13 fold
same,selectivity for the BrD1 over the BrD2 of BRD4,BRD4 BrD1; ratio of binding affinities,4 fold
same,increase in binding affinity for the BRD4 BrD2 by nitrogen in the C ring,BRD4 BrD2; 12 vs. 13,3 fold
"Cc1cc(/N=N/c2ccc(S(=O)(=O)NCc3ccc(C(F)(F)F)cc3)cc2)ccc1O [Compound 35, (E)-4-((4-hydroxy-3-methylphenyl)diazenyl)-N-(4-(trifluoromethyl)benzyl)benzenesulfon-amide]",binding activity toward BRD4 BrD1 (in words),BRD4 BrD1,deteriorated drastically
"COc1cc(/N=N/c2ccc(S(=O)(=O)Nc3ccccn3)cc2)c(N)cc1O [Compound 30, (E)-4-((2-amino-4-hydroxy-5-methoxyphenyl)diazenyl)-N-(pyridin-2-yl)benzenesulfon-amide]",reduction in binding affinity to the BRD4 BrD1 vs MS436,BRD4 BrD1,15 fold
same,reduction in binding affinity to the BRD4 BrD2 vs MS436,BRD4 BrD2,15 fold
"CC(C)c1cc(/N=N/c2ccc(S(=O)(=O)Nc3ccccn3)cc2)cc(C(C)C)c1O [Compound 41, (E)-4-((4-hydroxy-3,5-diisopropylphenyl)diazenyl)-N-(pyridin-2-yl)benzenesulfonamide]",binding activity toward BRD4 BrD1 (in words),BRD4 BrD1,almost completely lost their activities
"Cc1cc(/N=N/c2ccc(S(=O)(=O)N(C)c3ccccn3)cc2)cc(C)c1O [Compound 6, (E)-4-((4-hydroxy-3,5-dimethylphenyl)diazenyl)-N-methyl-N-(pyridin-2-yl)benzenesul-fonamide]",loss in activity/affinity toward BRD4 BrD1 vs MS435,BRD4 BrD1; vs MS435,9 fold
"Cc1nc(/N=N/c2ccc(S(=O)(=O)Nc3ccccn3)cc2)c(C)c(C)c1O [Compound 32, (E)-4-((5-hydroxy-3,4,6-trimethylpyridin-2-yl)diazenyl)-N-(pyridin-2-yl)benzenesulfon-amide]",loss in activity/affinity toward BRD4 BrD1 vs MS435,BRD4 BrD1; vs MS435,3 fold
"Cc1cc(/N=N/c2cccc(S(=O)(=O)Nc3ccccn3)c2)cc(C)c1O [Compound 3, (E)-3-((4-hydroxy-3,5-dimethylphenyl)diazenyl)-N-(pyridin-2-yl)benzenesulfonamide]",binding activity toward BRD4 BrD1 (in words),BRD4 BrD1,retained the affinity of 2
"CC(C)c1cc(/N=N/c2ccc(S(=O)(=O)Nc3ccccn3)cc2)ccc1O [Compound 39, (E)-4-((4-hydroxy-3-isopropylphenyl)diazenyl)-N-(pyridin-2-yl)benzenesulfonamide]",loss in activity/affinity toward BRD4 BrD1 vs MS435,BRD4 BrD1; vs MS435,about 10 fold
"Cc1cc(/N=N/c2ccc(S(=O)(=O)Nc3ccccn3)cc2)nc(C)c1O [Compound 31, (E)-4-((5-hydroxy-4,6-dimethylpyridin-2-yl)diazenyl)-N-(pyridin-2-yl)benzenesulfonamide]",loss in activity/affinity toward BRD4 BrD1 vs MS435,BRD4 BrD1; vs MS435,3 fold
"Cc1cc(/N=N/c2ccc(S(=O)(=O)NCc3ccc(C(F)(F)F)cc3)cc2)c(N)cc1O [Compound 36, (E)-4-((2-amino-4-hydroxy-5-methylphenyl)diazenyl)-N-(4-(trifluoromethyl)benzyl)benzene sulfonamide]",binding activity toward BRD4 BrD1 (in words),BRD4 BrD1,deteriorated drastically
"Cc1cc(/N=N/c2cccc(S(=O)(=O)Nc3ccccn3)c2)c(N)cc1O [Compound 51, (E)-3-((2-amino-4-hydroxy-5-methylphenyl)diazenyl)-N-(pyridin-2-yl)benzenesulfonamide]",reduction in binding affinity to the BRD4 BrD1 vs MS436,BRD4 BrD1,10 fold
same,reduction in binding affinity to the BRD4 BrD2 vs MS436,BRD4 BrD2,3 fold
"Cc1cc(/N=N/c2ccc(S(=O)(=O)Nc3ccc(C(=O)O)cn3)cc2)cc(C)c1O [Compound 9, (E)-6-(4-((4-hydroxy-3,5-dimethylphenyl)diazenyl)phenylsulfonamido)nicotinic acid]",better affinity/potency toward BRD4 BrD1 than MS435,BRD4 BrD1; vs MS435,about 3 fold
"CC(=O)Nc1c(C)cc(/N=N/c2ccc(S(=O)(=O)Nc3ccccn3)cc2)cc1C [Compound 38, (E)-N-(2,6-dimethyl-4-((4-(N-(pyridin-2-yl)sulfamoyl)phenyl)diazenyl)phenyl)acetamide]",binding activity toward BRD4 BrD1 (in words),BRD4 BrD1,completely lost binding activity
"Cc1cc(/N=N/c2ccc(S(=O)(=O)NCc3ccc(C(F)(F)F)cc3)cc2)cc(C)c1O [Compound 5, (E)-4-((4-hydroxy-3,5-dimethylphenyl)diazenyl)-N-(4-(trifluoromethyl)benzyl)benzenesul-fonamide]",binding activity toward BRD4 BrD1 (in words),BRD4 BrD1,deteriorated drastically
"Cc1cc(/N=N/c2ccc(S(=O)(=O)Nc3ccccn3)cc2)cc(C)c1O [Compound 4, (E)-4-((4-hydroxy-3,5-dimethylphenyl)diazenyl)-N-(pyridin-2-yl)benzenesulfonamide]",Lipophilic Ligand Efficiency,BRD4 BrD1,0.78
same,improvement of affinity for the BRD4 BrD1 vs compound 3,BRD4 BrD1; vs 3,over 6 fold
